Each structure is given as a SMILES string. Activity calls are given as the source filed them. No cut-off for these calls is given here.

This note sets out measurements from ChEMBL document CHEMBL1133389, “Antihypertensive activity of substituted 2,3,8,8a-tetrahydro-7H-oxazolo[3,2-a]pyridinedicarboxylate enantiomers” (Bioorg Med Chem Lett, 2000).

What all share (format): functional, organism-based
What all share (set-up): dose 50 mg/kg

Assay [1] relates to Rattus norvegicus. Description: Tested for relative acute toxicity at the dose of 50 mg/kg after intraperitoneal administration in spontaneously hypertensive rats; active.
Assay [2] relates to Rattus norvegicus. Description: Tested for relative acute toxicity at the dose of 50 mg/kg after intraperitoneal administration in spontaneously hypertensive rats; inactive.
In assay [3] the test system is Rattus norvegicus. Nature of the assay: Tested for antihypertensive activity at the dose of 50 mg/kg in spontaneously hypertensive rats; inactive.
Assay [4] deals with Rattus norvegicus. Nature of the assay: Tested for antihypertensive activity at the dose of 50 mg/kg in spontaneously hypertensive rats; active.
In assay [5] the test system is Rattus norvegicus. Nature of the assay: Tested for reflex tachycardia at the dose of 50 mg/kg when administered intraperitoneally in spontaneously hypertensive rats; active.

With `COC(=O)C1=C(C)N2C[C@@H](C)O[C@]2(C)[C@H](C(=O)OC)[C@H]1c1cccc(Cl)c1`, the result in assay [1] was Active. As for `COC(=O)C1=C(C)N2C[C@H](C)O[C@@]2(C)[C@@H](C(=O)OC)[C@@H]1c1cccc(Cl)c1`, the outcome in assay [2] was inactive. As to `CCOC(=O)[C@@H]1[C@@H](c2cccc([N+](=O)[O-])c2)C(C(=O)OC)=C(C)N2C[C@@H](C)O[C@]12C`, in assay [3], the outcome was inactive. Take `CCOC(=O)[C@H]1[C@H](c2cccc([N+](=O)[O-])c2)C(C(=O)OC)=C(C)N2CCO[C@@]12C`: the outcome in assay [4] was Active. On the same count and under the same terms, the value for `CCOC(=O)[C@H]1[C@H](c2cccc([N+](=O)[O-])c2)C(C(=O)OC)=C(C)N2C[C@H](C)O[C@@]12C` was “Active”. As for `COC(=O)C1=C(C)NC(C)=C(C(=O)OC)C1c1ccccc1[N+](=O)[O-]`, the result in assay [5] was Active.
